Values of other authors, collected in US20040058969A1, “Novel epothilone derivatives, method for the preparation thereof and their pharmaceutical use” (priority 2000, published 2004).

Tested on: P-glycoprotein-forming multiresistant tumor lines
Conditions: in vitro, relative to taxol

## C/C(=C\c1csc(C)n1)[C@@H]1C[C@@H]2O[C@]2(C)CCC[C@H](C)[C@H](O)[C@@H](C)C(=O)C(C)(C)[C@@H](O)CC(=O)O1 [Epothilone B, epothilone B]
  activity against P-glycoprotein-forming multiresistant tumor lines in comparison to taxol: significantly higher activity

## C/C(=C\c1csc(C)n1)[C@@H]1C[C@@H]2O[C@@H]2CCC[C@H](C)[C@H](O)[C@@H](C)C(=O)C(C)(C)[C@@H](O)CC(=O)O1 [Epothilone A, epothilone A]
  activity against P-glycoprotein-forming multiresistant tumor lines in comparison to taxol: significantly higher activity
